Measured values reported in the supplement of paper PMC11061612.

Experiments:
[1] = tested on: A375 (Melanoma); test: Bliss excess, mean over the matrix (fraction); higher = more synergy
Method in brief: (§1)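 Cell lines in DMEM/F12 or RPMI with 10% FBS were plated in 1536-well plates, held 24 hours at 37°C, 5% CO2, then given two-drug dose matrices for 72 hours (DMSO typically 0.2%). Viability was read by CellTiter-Glo 2.0 luminescence and scaled as inhibition from 0 (vehicle wells) to 1 (blank wells). Combination Emax is the second-highest inhibition in the matrix; Bliss excess is observed combination effect minus expected EA + EB − EA·EB, EA and EB being single-agent effects.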

[2] = tested on: ATN-1 (T-Lymphoblastic Leukemia); test: as above
Method in brief: as §1

[3] = tested on: BC-1 (B-Cell Non-Hodgkin's Lymphoma); test: as above
Method in brief: as §1

[4] = tested on: C32 (Melanoma); test: as above
Method in brief: as §1

[5] = tested on: HT-3 (Cervical Carcinoma); test: as above
Method in brief: as §1

[6] = tested on: IGROV-1 (Ovarian Carcinoma); test: as above
Method in brief: as §1

[7] = tested on: KNS-62 (Squamous Cell Lung Carcinoma); test: as above
Method in brief: as §1

[8] = tested on: NCI-H1435 (Non-Small Cell Lung Carcinoma); test: as above
Method in brief: as §1

[9] = tested on: NCI-H2023 (Non-Small Cell Lung Carcinoma); test: as above
Method in brief: as §1

[10] = tested on: OCI-M1 (Acute Myeloid Leukemia); test: as above
Method in brief: as §1

[11] = tested on: SBC-5 (Small Cell Lung Carcinoma); test: as above
Method in brief: as §1

[12] = tested on: SK-N-DZ (Neuroblastoma); test: as above
Method in brief: as §1

[13] = tested on: A375 (Melanoma); test: combination Emax (second highest fraction inhibited in the dose matrix, 72 h); higher = more inhibition; extreme values may be limits of the assay
Method in brief: as §1

[14] = tested on: C32 (Melanoma); test: as above
Method in brief: as §1

[15] = tested on: HT-144 (Melanoma); test: as above
Method in brief: as §1

[16] = tested on: MG-63 (Osteosarcoma); test: as above
Method in brief: as §1

[17] = tested on: NCI-H2009 (Lung Adenocarcinoma); test: as above
Method in brief: as §1

[18] = tested on: RPMI-8402 (T-Lymphoblastic Leukemia); test: as above
Method in brief: as §1

[19] = tested on: SNU-1 (Gastric Carcinoma); test: as above
Method in brief: as §1

[20] = tested on: SUP-HD1 (Hodgkin's Lymphoma); test: as above
Method in brief: as §1
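Throughout, for Bliss excess, mean over the matrix: after 72 h of two-drug dosing.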

Row | Structure (SMILES) | Bliss excess [1] | Bliss excess [2] | Bliss excess [3] | Bliss excess [4] | Bliss excess [5] | Bliss excess [6] | Bliss excess [7] | Bliss excess [8] | Bliss excess [9] | Bliss excess [10] | Bliss excess [11] | Bliss excess [12] | combination Emax [13] | combination Emax [14] | combination Emax [15] | combination Emax [16] | combination Emax [17] | combination Emax [18] | combination Emax [19] | combination Emax [20]
1 | CN(CCO)CC[C@H](CSc1ccccc1)Nc1ccc(S(=O)(=O)NC(=O)c2ccc(N3CCC([C@@H](O)c4ccccc4-c4ccc(Cl)cc4)CC3)cc2)cc1S(=O)(=O)C(F)(F)F [AZD4320] + C1CN(CCC1(C(=O)N[C@@H](CCO)C2=CC=C(C=C2)Cl)N)C3=NC=NC4=C3C=CN4 [Capivasertib] (first compound max 1 µM, 7x7, partner max 3 µM) | -0.0414 | -0.0802 | -0.0342 | -0.0564 | -0.0593 | -0.0385 | -0.0637 | 0.0003 | -0.103 | -0.0161 | -0.0207 | -0.0417 | 0.0874 | 0.257 | 0.387 | 0.271 | 0.0559 | 0.961 | 0.412 | 0.959
2 | NC1(C(=O)N[C@@H](CCO)c2ccc(Cl)cc2)CCN(c2ncnc3[nH]ccc23)CC1 [Capivasertib] + CC(C)n1c(=O)n(C)c2cnc3cc(F)c(-c4ccc(OCCCN5CCCCC5)nc4)cc3c21 [AZD1390] (first compound max 10 µM, 7x7, partner max 0.3 µM) | -0.0496 | -0.062 | -0.0175 | -0.0343 | -0.035 | -0.0147 | -0.0458 | -0.0336 | -0.0587 | -0.0268 | -0.0792 | -0.0605 | 0.228 | 0.353 | 0.606 | 0.813 | 0.372 | 0.623 | 0.229 | 0.473
3 | Cc1c2c(nn1C)CSCc1cc(n(C)n1)CSc1cc(c3ccccc3c1)OCCCc1c(C(=O)O)n(C)c3c-2c(Cl)ccc13 [AZD5991] + CN(C)CCCOc1ccc(-c2ccc3ncc4c(c3c2)n(C2CCOCC2)c(=O)n4C)cn1 [AZD0156] (first compound max 1 µM, 7x7, partner max 1 µM) | 0.0053 | 0.0058 | 0.0274 | -0.0076 | 0.0222 | -0.0297 | -0.0201 | 0.0719 | -0.0069 | -0.0097 | 0.0387 | 0.0063 | 0.457 | 0.24 | 0.87 | 0.251 | 0.182 | 0.795 | 0.584 | 0.617
4 | NC1(C(=O)N[C@@H](CCO)c2ccc(Cl)cc2)CCN(c2ncnc3[nH]ccc23)CC1 [Capivasertib] + CC(=O)c1c(C)c2cnc(Nc3ccc(N4CCNCC4)cn3)nc2n(C2CCCC2)c1=O [Palbociclib] (first compound max 10 µM, 7x7, partner max 10 µM) | 0.0051 | -0.0217 | 0.0026 | 0.0018 | -0.0182 | -0.048 | -0.0236 | -0.0245 | 0.0276 | -0.0056 | 0.0352 | 0.0628 | 0.368 | 0.413 | 0.809 | 0.712 | 0.242 | 0.947 | 0.621 | 0.569
5 | CCN(CCO)CCCOc1ccc2c(Nc3cc(CC(=O)Nc4cccc(F)c4)[nH]n3)ncnc2c1 [AZD2811] + O=C(c1cc(Cc2n[nH]c(=O)c3ccccc23)ccc1F)N1CCN(C(=O)C2CC2)CC1 [Olaparib] (first compound max 1 µM, 7x7, partner max 10 µM) | 0.0039 | -0.0849 | -0.0401 | -0.0056 | 0.008 | 0.0329 | -0.0171 | 0.0111 | -0.0737 | 0.0337 | 0.033 | -0.0696 | 0.408 | 0.232 | 0.309 | 0.335 | 0.343 | 0.85 | 0.381 | 0.718
6 | COc1cccc(OCCCN)c1-c1cc(Nc2cnc(C#N)cn2)n[nH]1 [Prexasertib] + O=C(c1cc(Cc2n[nH]c(=O)c3ccccc23)ccc1F)N1CCN(C(=O)C2CC2)CC1 [Olaparib] (first compound max 1 µM, 7x7, partner max 10 µM) | -0.0101 | -0.0078 | -0.0108 | -0.0459 | 0.0276 | -0.111 | -0.0637 | 0.0045 | -0.0213 | -0.0322 | -0.0376 | -0.0511 | 0.815 | 0.769 | 0.712 | 0.822 | 0.574 | 1 | 0.777 | 0.802
